Active and inactive are the calls of the source. No cut-off for these calls is given here.
Legend:
Dipeptidyl peptidase 4 = Dipeptidyl peptidase 4 (Homo sapiens, UniProt P27487); assay: Inhibition of DPP4
Rattus norvegicus = assay: Antihyperglycemic activity in Zucker fa/fa rat by oral glucose tolerance test at 3 umol/kg, po; assay type: functional, organism-based

Chain of Dipeptidyl peptidase 4 (P27487 whole entry): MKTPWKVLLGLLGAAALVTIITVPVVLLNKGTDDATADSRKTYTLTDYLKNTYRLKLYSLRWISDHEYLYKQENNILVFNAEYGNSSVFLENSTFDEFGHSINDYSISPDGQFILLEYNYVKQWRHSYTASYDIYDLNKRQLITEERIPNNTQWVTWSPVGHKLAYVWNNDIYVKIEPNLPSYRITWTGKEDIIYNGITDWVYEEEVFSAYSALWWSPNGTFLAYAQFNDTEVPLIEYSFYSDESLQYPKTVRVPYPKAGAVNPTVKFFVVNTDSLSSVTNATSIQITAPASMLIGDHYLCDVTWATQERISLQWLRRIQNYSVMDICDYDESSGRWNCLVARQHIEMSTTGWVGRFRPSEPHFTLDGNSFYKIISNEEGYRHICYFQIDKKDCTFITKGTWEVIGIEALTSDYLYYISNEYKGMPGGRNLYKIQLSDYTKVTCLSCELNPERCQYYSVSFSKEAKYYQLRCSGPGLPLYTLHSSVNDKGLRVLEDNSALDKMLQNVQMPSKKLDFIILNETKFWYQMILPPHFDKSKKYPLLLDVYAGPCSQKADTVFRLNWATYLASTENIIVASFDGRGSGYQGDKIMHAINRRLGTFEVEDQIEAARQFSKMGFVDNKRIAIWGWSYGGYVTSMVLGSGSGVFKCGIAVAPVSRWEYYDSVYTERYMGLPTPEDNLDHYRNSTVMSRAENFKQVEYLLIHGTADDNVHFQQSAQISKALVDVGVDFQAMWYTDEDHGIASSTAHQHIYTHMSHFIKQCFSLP

SMILES | Ki (Dipeptidyl peptidase 4) [µM] | Activity (Rattus norvegicus)
N#CCN(Cc1ccccc1)C(=O)[C@@H](N)C12CC3CC(CC(C3)C1)C2 | > 10 | –
CC(C)(C#N)NC(=O)[C@@H](N)C(C)(C)C | > 10 | –
CC(C)(C#N)NC(=O)[C@@H](N)C12CC3CC(CC(C3)C1)C2 | > 10 | –
CCCCN(CC#N)C(=O)[C@@H](N)C(C)(C)C | > 10 | –
N#CCNC(=O)[C@@H](N)C12CC3CC(CC(C3)C1)C2 | > 10 | –
CN(CC#N)C(=O)[C@@H](N)C12CC3CC(CC(O)(C3)C1)C2 | – | Active
